Reference: US11591323B2, “Muscarinic agonists as non-steroidal and non-opioid analgesics and methods of use thereof” (Barry University, priority 2019, dated 2023)

Biological target: T1, M1 muscarinic receptor (Homo sapiens, UniProt P11229)
T1 sequence (P11229 1-460): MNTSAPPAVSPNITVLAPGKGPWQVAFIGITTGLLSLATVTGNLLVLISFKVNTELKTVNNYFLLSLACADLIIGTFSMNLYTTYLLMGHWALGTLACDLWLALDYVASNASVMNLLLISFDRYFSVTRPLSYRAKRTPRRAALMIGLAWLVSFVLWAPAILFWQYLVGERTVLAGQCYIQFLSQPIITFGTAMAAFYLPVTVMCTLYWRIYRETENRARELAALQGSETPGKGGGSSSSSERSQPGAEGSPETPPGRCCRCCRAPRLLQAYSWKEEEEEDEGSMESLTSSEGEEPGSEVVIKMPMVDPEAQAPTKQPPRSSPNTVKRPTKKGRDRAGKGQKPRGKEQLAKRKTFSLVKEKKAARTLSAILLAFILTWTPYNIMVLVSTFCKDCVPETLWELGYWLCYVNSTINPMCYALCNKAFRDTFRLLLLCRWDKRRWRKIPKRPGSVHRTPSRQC
Experiment: inhibition of forskolin-stimulated cAMP, M1 CHO cells (M1Gi)
Format: cell-based
Parameters: host or cells: CHO cells, stably transfected
Conditions: for Emax: CHO; for Emax / EC50 / τ / RAi / Kd: M1Gi (↓cAMP); for Emax / EC50 / τ / Kd: Table 8; for effect on forskolin-stimulated production of cAMP: M1, non-preferential response, in words; for RAi: Table 8, relative to carbachol; for Kd: read-out: pKA (converted)
Description: Since activation of phospholipase C (PLC) via M2 and M4 receptors is weak, cells were transferred with G15 G-protein to facilitate coupling.
To determine level of cAMP, cells in suspension were pre-incubated for 1 h with 0.4 μM [^3H]adenine, washed, and incubated for 10 min in the presence of isobutylmethylxanthine and 10 μM forskolin. […] Incubation was ended by addition of 0.2 ml of 2.5 M HCl to the samples. Samples were applied to alumina columns (1.5 g of alumina per column), washed with 2 ml ammonium acetate (pH=7.0) and eluted from columns with 4 ml ammonium acetate and measured by liquid scintillation spectrometry. […] The incubation was stopped by addition of 0.5 ml of chloroform methanol HCl mixture (2:1:0.1). After separation of water and organic phases, 0.6 ml of water phase was applied to Dowex columns (1.5 g of Dowex per column), washed by 20 ml of 60 mM ammonium formate/5 mM sodium borate buffer and eluted from columns with 4 ml of 1M ammonium formate/0.1 formic acid buffer and measured by liquid scintillation spectrometry.
Measurements of the production of cAMP and inositol phosphates: Levels of second messengers cAMP and inositol phosphates were determined in radiochemical chromatography assays as described previously. To determine level of cAMP, cells in suspension were pre-incubated for 1 h with 0.4 μM [^3H]adenine, washed, and incubated for 10 min in the presence of isobutylmethylxanthine and 10 μM forskolin. […] Incubation was ended by addition of 0.2 ml of 2.5 M HCl to the samples. Samples were applied to alumina columns (1.5 g of alumina per column), washed with 2 ml ammonium acetate (pH=7.0) and eluted from columns with 4 ml ammonium acetate and measured by liquid scintillation spectrometry. […] For this purpose, new CHO cell lines stably expressing promiscuous G15 G-protein and M2 or M4 receptor were generated by transfection with pCMV/hygro vector and hygromycin selection. To determine the rate of formation of inositol phosphates IPX, suspended cells were pre-incubated with 0.1 μM [^3H]myo-inositol for 60 min, washed, and incubated with 10 mM LiCl for 15 min. […] The incubation was stopped by addition of 0.5 ml of chloroform methanol HCl mixture (2:1:0.1). After separation of water and organic phases, 0.6 ml of water phase was applied to Dowex columns (1.5 g of Dowex per column), washed by 20 ml of 60 mM ammonium formate/5 mM sodium borate buffer and eluted from columns with 4 ml of 1M ammonium formate/0.1 formic acid buffer and measured by liquid scintillation spectrometry.
For bi-phasic response, curves were inhibitory and stimulatory phase were fitted separately. Operational Model of Functional Agonism
[formula] where y is functional response at concentration of tested compound x, EMAX is maximal response of the system, KA is equilibrium dissociation constant and nH is slope factor. Eq. 5 was fitted to data from functional experiments. Eq. 5 was fitted to data by the two-step procedure described earlier. […] In the second step, Eq. 5 with EMAX fixed to the value determined in the first step was fitted to individual experimental data sets. Relative Intrinsic Activity
Muscarinic receptors are also able to stimulate non-preferential signalling pathways.

SMILES | Emax [%] | effect on forskolin-stimulated production of cAMP | EC50 [µM] | τ | RAi | Kd [µM]
C1=CCN(Cc2cccs2)CC1.Cl [Compound 6A, 1-[(thiophen-2-yl)methyl]-1,2,3,6-tetrahydropyridin-1-ium chloride] | 26 ± 2 | inhibited cAMP production | 11.7 | 0.42 ± 0.04 | +inf. | 15.8
C[N+]1(Cc2cccs2)CC=CCC1.[I-] (stereo not drawn) [Compound 7A, 1-methyl-1-[(thiophen-2-yl)methyl]-1,2,3,6-tetrahydropyridin-1-ium iodide] | 30 ± 3 | inhibited cAMP production | 7.94 | 0.52 ± 0.05 | +inf. | 12.6
